The source made the active and inactive calls. The calls are words filed in the database; no cut-off is given here.

Data set [1] has as its system SH-SY5Y. Nature of the data set: Reversal of okadaic acid-mediated PP2A catalytic subunit C Ser/Thr phosphatase activity inactivation in human SH-SY5Y cells assessed as recovery of PP2A activity at 0.1 uM preincubated for 24 hrs followed by cotreatment with PPA2 inhibitor okadaic acid for 18 hrs measured over 30 mins by pNPP based spectrophotometric analysis relative to control. Type of data set: cell-based. Further details: scale not given: the % may be the effect or the level left.

The test system of data set [2] is Voltage-gated calcium channel. Nature of the data set: Inhibition of voltage gated calcium channel in human SH-SY5Y cells assessed as blockade of K+-evoked calcium uptake at 1 uM pretreated for 10 mins followed by 70 mM K+ addition by Fluo-4AM dye based fluorescence assay relative to control. The format is cell-based.
For data set [3], the system named is SH-SY5Y. Nature of the data set: Cytotoxicity against human SH-SY5Y cells assessed as decrease in cell viability up to 30 uM after 48 hrs by MTT assay. The format is cell-based. For orientation: Tetrazolium assays rely on reduction of a dye to a coloured formazan, in cell work by metabolically active cells.
The test system of data set [4] is SH-SY5Y. Nature of the data set: Neuroprotective activity against okadaic acid-induced oxidative stress in human SH-SY5Y cells assessed as increase in cell viability at 0.1 uM preincubated for 24 hrs followed by OA addition measured after 20 hrs by MTT assay relative to control. The format is functional.
In data set [5] the test system is SH-SY5Y. Nature of the data set: Neuroprotective activity against cocktail of rotenone plus oligomycin A-induced oxidative stress in human SH-SY5Y cells assessed as increase in cell viability at 10 nM preincubated for 24 hrs followed by […] measured after 24 hrs by MTT assay relative to control. The format is functional.
Data set [6] has as its system SH-SY5Y. Nature of the data set: Reversal of okadaic acid-mediated PP2A inactivation in human SH-SY5Y cells assessed as decrease in Tau phosphorylation at Ser202/Thr205 residues at 0.1 uM after 24 hrs by Western blot method. Type of data set: cell-based.
Data set [7] addresses Voltage-dependent N-type calcium channel subunit alpha (Bos taurus) (UniProt G3X7Z2). Nature of the data set: Inhibition of N-type voltage dependent calcium channel in bovine Chromaffin cells assessed as reduction in K+-induced calcium current at 1 uM after 3 mins by whole cell patch clamp electrophysiology assay. Type of data set: cell-based. In general terms: In patch-clamp work, channel activity is measured electrically.

The species named for another data set is Bos taurus. Nature of the data set: Inhibition of P/Q-type voltage dependent calcium channel in bovine Chromaffin cells assessed as reduction in K+-induced calcium current at 1 uM after 3 mins by whole cell patch clamp electrophysiology assay. Type of data set: cell-based.
In data set [8] the test system is Voltage-gated calcium channel. Nature of the data set: Inhibition of voltage gated calcium channel in human SH-SY5Y cells assessed as blockade of K+-evoked calcium uptake at 3 uM pretreated for 10 mins followed by 70 mM K+ addition by Fluo-4AM dye based fluorescence assay relative to control. Type of data set: cell-based.

Chain of Voltage-dependent N-type calcium channel subunit alpha (Bos taurus) (G3X7Z2 as listed by the source): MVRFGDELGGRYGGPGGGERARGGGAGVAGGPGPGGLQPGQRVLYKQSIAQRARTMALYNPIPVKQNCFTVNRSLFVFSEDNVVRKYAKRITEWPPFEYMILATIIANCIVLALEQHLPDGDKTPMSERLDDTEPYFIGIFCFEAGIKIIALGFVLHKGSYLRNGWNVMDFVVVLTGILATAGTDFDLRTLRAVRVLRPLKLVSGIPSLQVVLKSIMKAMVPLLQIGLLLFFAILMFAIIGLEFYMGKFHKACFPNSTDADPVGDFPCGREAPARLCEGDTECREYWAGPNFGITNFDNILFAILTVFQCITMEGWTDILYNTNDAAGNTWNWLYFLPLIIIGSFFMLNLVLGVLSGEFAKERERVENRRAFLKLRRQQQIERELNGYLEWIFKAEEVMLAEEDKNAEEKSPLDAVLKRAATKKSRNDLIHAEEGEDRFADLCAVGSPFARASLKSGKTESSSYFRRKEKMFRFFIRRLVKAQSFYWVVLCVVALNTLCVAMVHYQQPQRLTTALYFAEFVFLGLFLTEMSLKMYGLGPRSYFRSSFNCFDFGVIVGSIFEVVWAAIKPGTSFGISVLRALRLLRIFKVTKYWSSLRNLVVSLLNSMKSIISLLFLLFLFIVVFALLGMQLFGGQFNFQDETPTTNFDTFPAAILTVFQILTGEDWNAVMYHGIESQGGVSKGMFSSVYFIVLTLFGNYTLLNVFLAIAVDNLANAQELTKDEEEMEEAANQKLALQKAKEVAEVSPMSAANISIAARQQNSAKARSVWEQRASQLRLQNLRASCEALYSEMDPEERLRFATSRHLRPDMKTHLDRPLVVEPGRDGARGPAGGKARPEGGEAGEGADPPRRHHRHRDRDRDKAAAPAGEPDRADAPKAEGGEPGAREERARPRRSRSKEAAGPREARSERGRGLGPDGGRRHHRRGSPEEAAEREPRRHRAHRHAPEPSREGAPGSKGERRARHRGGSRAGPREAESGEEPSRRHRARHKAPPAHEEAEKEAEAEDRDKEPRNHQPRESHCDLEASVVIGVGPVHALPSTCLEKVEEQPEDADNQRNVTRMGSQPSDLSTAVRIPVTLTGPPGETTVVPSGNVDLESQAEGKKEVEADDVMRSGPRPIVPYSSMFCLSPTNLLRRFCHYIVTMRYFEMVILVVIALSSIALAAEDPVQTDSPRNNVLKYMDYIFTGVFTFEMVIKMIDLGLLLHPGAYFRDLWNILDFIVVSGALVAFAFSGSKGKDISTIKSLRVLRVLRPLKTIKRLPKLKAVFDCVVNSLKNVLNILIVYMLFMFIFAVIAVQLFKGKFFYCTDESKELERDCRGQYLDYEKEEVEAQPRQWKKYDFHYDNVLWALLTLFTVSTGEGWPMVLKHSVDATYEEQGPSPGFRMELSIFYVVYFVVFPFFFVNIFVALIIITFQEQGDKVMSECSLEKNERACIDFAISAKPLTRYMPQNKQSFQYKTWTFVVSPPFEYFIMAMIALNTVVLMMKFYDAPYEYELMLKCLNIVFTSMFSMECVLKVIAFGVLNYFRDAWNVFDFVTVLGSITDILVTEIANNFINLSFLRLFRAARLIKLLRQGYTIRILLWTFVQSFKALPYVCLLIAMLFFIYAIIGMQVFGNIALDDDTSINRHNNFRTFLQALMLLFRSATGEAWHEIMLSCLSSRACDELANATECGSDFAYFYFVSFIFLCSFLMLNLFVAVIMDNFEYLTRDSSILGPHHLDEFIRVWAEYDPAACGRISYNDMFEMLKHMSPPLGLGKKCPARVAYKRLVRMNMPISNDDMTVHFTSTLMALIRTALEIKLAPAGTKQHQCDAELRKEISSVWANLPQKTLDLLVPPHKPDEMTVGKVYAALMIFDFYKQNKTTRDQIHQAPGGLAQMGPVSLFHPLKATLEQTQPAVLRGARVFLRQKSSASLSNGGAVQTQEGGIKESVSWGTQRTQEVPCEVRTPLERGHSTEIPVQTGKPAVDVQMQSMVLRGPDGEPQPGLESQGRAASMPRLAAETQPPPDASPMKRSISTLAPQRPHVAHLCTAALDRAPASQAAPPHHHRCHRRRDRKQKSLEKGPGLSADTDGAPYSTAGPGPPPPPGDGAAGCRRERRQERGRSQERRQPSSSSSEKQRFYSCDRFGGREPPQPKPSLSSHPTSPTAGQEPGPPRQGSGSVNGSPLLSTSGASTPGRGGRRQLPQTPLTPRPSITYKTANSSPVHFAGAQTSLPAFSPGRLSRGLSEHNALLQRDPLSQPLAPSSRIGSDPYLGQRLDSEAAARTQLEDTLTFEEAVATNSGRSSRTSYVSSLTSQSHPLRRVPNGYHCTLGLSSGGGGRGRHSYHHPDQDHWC

`Brc1cnc2c(c1)c(CN1CCCCC1)cn2Cc1ccccc1`: the Activity in the data set with SH-SY5Y [1] is 31%; in the data set with SH-SY5Y [3] it was “Non-Toxic”; with SH-SY5Y [4] it was 60%; in the data set on SH-SY5Y [5] it was 25%. In addition, the “inhibition (INH)” value in data set [2] was 15%.

For the compound `CCCCn1cc(CN(C)C)c2ccccc21`, the Activity in the data set with SH-SY5Y [1] is 12%; in the data set with SH-SY5Y [3], “Non-Toxic”; with SH-SY5Y [4], 50%; in the data set with SH-SY5Y [5], 20%. For the same compound, the “inhibition (INH)” value in data set [2] is recorded as 7%.

Take `c1ccc(Cn2cc(CN3CCCCC3)c3ccccc32)cc1`: the Activity in the data set on SH-SY5Y [1] is 37%; in the data set with SH-SY5Y [3], “Non-Toxic”; with SH-SY5Y [4], 65%; in the data set with SH-SY5Y [5], 28%. Moreover, the “inhibition (INH)” value in [2] was 11%.

In the case of `CCCCn1cc(CN2CCCCC2)c2ccccc21`, the Activity was 30% in the data set with SH-SY5Y [1], “Non-Toxic” in the data set with SH-SY5Y [3], 55% with SH-SY5Y [4] and 25% in the data set on SH-SY5Y [5]. Further, the “inhibition (INH)” value in [2] is reported as 13%.

With `CCCCn1cc(CN(C)C)c2cc(Cl)ccc21`, the Activity with SH-SY5Y [1] was 39%; in the data set on SH-SY5Y [3], “Non-Toxic”; in the data set with SH-SY5Y [4] it was 93%; in the data set with SH-SY5Y [5], 38%. Moreover, the “inhibition (INH)” value in data set [2] is listed as 23%.

With `COc1cnc2c(c1)c(CN(C)C)cn2Cc1ccccc1`, the Activity with SH-SY5Y [1] is 33%; with SH-SY5Y [3], “Non-Toxic”; in the data set with SH-SY5Y [4] it was 51%; in the data set on SH-SY5Y [5], 29%. Further, the “inhibition (INH)” value in data set [2] was 10%.

For `CN(C)Cc1cn(Cc2ccccc2)c2ccc(Cl)cc12`, the Activity was 78% in the data set on SH-SY5Y [1], “Non-Toxic” in the data set on SH-SY5Y [3], 88% in the data set on SH-SY5Y [4] and 32% in the data set on SH-SY5Y [5]. Moreover, in the data set with SH-SY5Y [6], the result was Active. Also, the “inhibition (INH)” value in data set [2] amounted to 40%. Further, the inhibition result (in [7]; in the data set filed under Bos taurus) was “Active” throughout.

As to `COC(=O)C1=C(C)NC(C)=C(C(=O)OC)C1c1ccccc1[N+](=O)[O-]` [NIFEDIPINE], in [8], the “inhibition (INH)” value was 40%.

Turning to `C#CCn1cc(CN2CCCCC2)c2cc(Cl)ccc21`, the Activity in the data set with SH-SY5Y [1] was 44%; with SH-SY5Y [3], “Non-Toxic”; in the data set with SH-SY5Y [4], 55%; in the data set on SH-SY5Y [5] it was 16%. Also, the “inhibition (INH)” value in data set [2] is recorded as 32%.

Consider `C#CCn1cc(CN(C)C)c2cc(Br)cnc21`, for which the Activity in the data set on SH-SY5Y [1] is 17%; with SH-SY5Y [3], “Non-Toxic”; in the data set with SH-SY5Y [4] it was 63%; with SH-SY5Y [5], 17%. Moreover, the “inhibition (INH)” value in data set [2] amounted to 11%.

Take `COc1ccc2[nH]cc(CCNC(C)=O)c2c1` [MELATONIN]: the Activity in the data set on SH-SY5Y [5] is 36%.

Regarding `CCCCn1cc(CN2CCCCC2)c2cc(Cl)ccc21`, the Activity in the data set on SH-SY5Y [1] was 38%; in the data set on SH-SY5Y [3], “Non-Toxic”; in the data set on SH-SY5Y [4], 98%; in the data set with SH-SY5Y [5], 27%. Moreover, in [2], the “inhibition (INH)” value was 24%.

On to `CC12CC3CC(C)(C1)CC(N)(C3)C2` [MEMANTINE], for which the Activity in the data set with SH-SY5Y [1] came to 28%; in the data set with SH-SY5Y [4] it was 63%.

As to `CCCCn1cc(CN(C)C)c2cc(Br)cnc21`, the Activity in the data set on SH-SY5Y [1] was 34%; with SH-SY5Y [3], “Non-Toxic”; in the data set on SH-SY5Y [4], 57%; with SH-SY5Y [5], 18%. In addition, the “inhibition (INH)” value in data set [2] turned out to be 10%.

For the compound `C#CCn1cc(CN(C)C)c2ccccc21`, the Activity with SH-SY5Y [1] is 59%; in the data set with SH-SY5Y [3], “Non-Toxic”; in the data set with SH-SY5Y [4], 75%; in the data set on SH-SY5Y [5], 32%. Also, in [2], the “inhibition (INH)” value is 3%.

`CN(C)Cc1cn(Cc2ccccc2)c2ccccc12`: the Activity was 45% in the data set on SH-SY5Y [1], “Non-Toxic” with SH-SY5Y [3], 67% in the data set on SH-SY5Y [4] and 34% with SH-SY5Y [5]. The “inhibition (INH)” value in data set [2] is given as 22%.

As for `CN(C)Cc1cn(Cc2ccccc2)c2ncc(Br)cc12`, the Activity in the data set on SH-SY5Y [1] was 21%; in the data set with SH-SY5Y [3] it was “Non-Toxic”; in the data set with SH-SY5Y [4], 84%; in the data set on SH-SY5Y [5] it was 32%. Moreover, in data set [2], the “inhibition (INH)” value was determined as 46%. In addition, the inhibition result (in [7]; in the data set filed under Bos taurus) was “Active” throughout.

With `COc1cnc2c(c1)c(CN1CCCCC1)cn2Cc1ccccc1`, the Activity is 47% with SH-SY5Y [1], “Non-Toxic” with SH-SY5Y [3], 62% with SH-SY5Y [4] and 40% in the data set with SH-SY5Y [5]. The “inhibition (INH)” value in data set [2] was 19%.

Take `C#CCn1cc(CN2CCCCC2)c2ccccc21`: the Activity was 17% with SH-SY5Y [1], “Non-Toxic” in the data set with SH-SY5Y [3], 58% in the data set with SH-SY5Y [4] and 41% in the data set with SH-SY5Y [5]. In addition, in data set [2], the “inhibition (INH)” value is 35%.

On to `C#CCn1cc(CN2CCCCC2)c2cc(Br)cnc21`, for which the Activity with SH-SY5Y [1] was 25%; with SH-SY5Y [3], “Non-Toxic”; with SH-SY5Y [4], 68%; in the data set on SH-SY5Y [5], 13%. Besides, the “inhibition (INH)” value in data set [2] is 8%.

Turning to `CCCCn1cc(CN2CCCCC2)c2cc(Br)cnc21`, the Activity was 22% in the data set on SH-SY5Y [1], “Non-Toxic” in the data set with SH-SY5Y [3], 98% in the data set with SH-SY5Y [4] and 39% in the data set with SH-SY5Y [5]. Further, the “inhibition (INH)” value in [2] is 9%.

For the compound `Clc1ccc2c(c1)c(CN1CCCCC1)cn2Cc1ccccc1`, the Activity in the data set on SH-SY5Y [1] is 27%; in the data set on SH-SY5Y [3], “Non-Toxic”; in the data set with SH-SY5Y [4], 62%; with SH-SY5Y [5], 24%. Further, in data set [2], the “inhibition (INH)” value came out at 37%.

As for `C#CCn1cc(CN(C)C)c2cc(Cl)ccc21`, the Activity is 23% in the data set on SH-SY5Y [1], “Non-Toxic” in the data set with SH-SY5Y [3], 43% in the data set on SH-SY5Y [4] and 26% in the data set with SH-SY5Y [5]. Besides, the “inhibition (INH)” value in data set [2] came out at 18%.
